Values after ≈ are worked out from the molar mass of the structure shown. Where a name gives a salt, the structure may show the parent alone. Read-outs that look alike come from different tables or passages of the source. Each block holds one compound with its values, some of them ahead of it.
Key:
MRSA Pyk = target: T1, MRSA Pyk (Staphylococcus aureus, UniProt Q6GG09); assay: MRSA pyruvate kinase (PK) activity, continuous LDH-coupled assay; type: biochemical, methicillin resistant S. aureus (MRSA252)
T1 construct: made in house; host or cells: E. coli BL-21 (DE3)
Outline: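 His-tagged MRSA PK (strain Sanger 252) and human PK isoforms expressed in E. coli BL-21 (DE3) and Ni-NTA purified, used at 15 nM in an LDH-coupled assay following NADH oxidation at 340 nm, 30° C, up to 5 min, ≤1% DMSO. IC50 from four-parameter variable-slope fit; Ki with PEP 2-20 mM, ADP fixed 2 mM, inhibitor 0-400 nM.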

S. aureus (ATCC29213) = assay: In vitro susceptibility, broth microdilution (MIC); type: cell-based; conditions: Staphylococcus aureus
Outline: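 CLSI 2-fold serial broth microdilution; K. pneumoniae C238 grown in L-broth, S. aureus ATCC 29213 in Mueller Hinton broth, plates incubated 18–24 h at 37 °C. MIC taken as lowest concentration giving complete growth inhibition by OD600 versus compound-free wells, background-subtracted.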

MRSA (ATCC BAA-1762) = assay: In vitro susceptibility, broth microdilution (MIC); type: cell-based, methicillin resistant S. aureus; conditions: Staphylococcus aureus, read-out: Antimicrobial activity (MIC) MRSA ATCC BAA1762
Outline: (§1)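 MIC determined by CLSI 2-fold broth microdilution in cation-adjusted Mueller–Hinton broth at ~2.5×10^5 CFU/ml, final compound 0.031–64 μg/ml, 18–24 h at 37 °C. MIC is the lowest concentration giving complete growth inhibition by background-corrected OD600 versus compound-free wells; duplicate or triplicate wells, replicated at least twice.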

VRE#2 (2010A) = assay: In vitro susceptibility, broth microdilution (MIC); type: cell-based, vancomycin resistant Enterococci; conditions: read-out: Antimicrobial activity (MIC) VRE#2
Outline: as §1

[1] = test system: A. baumannii (ATCC 19606); assay: In vitro susceptibility, broth microdilution (MIC); type: cell-based; conditions: Acinetobacter baumannii
Description: (§2) Epidemic methicillin resistant S. aureus (MRSA) strain sequenced at the Sanger Centre (MRSA252, NRS71) was obtained from NARSA (Network on Antimicrobial Resistance in S. aureus). Methicillin sensitive S. aureus (ATCC 29213 and 25923), methicillin resistant S. aureus (ATCC BAA-1762), and Salmonella typhimurium (ATCC BAA-185) were obtained from ATCC, The Global Bioresource Center. Acinetobacter baumannii (ATCC 19606 and ATCC 17978), Klebsiella pneumonia (C238), vancomycin resistant Enterococci #2 (2010A) (VRE#2), MRSA (USA400, MW2) and Pseudomonas aeruginosa (PA0-1) were obtained from the laboratory of Dr B. B. Finlay at the University of British Columbia (Vancouver, Canada).
(§3) The antimicrobial activities of PK inhibitor candidates were determined using the 96-well microtiter standard 2-fold serial broth microdilution method as described by CLSI (formerly NCCLS) with the various gram-positive and gram-negative bacteria species mentioned above. Bacteria from a single colony were grown, overnight in either BHI Broth (VRE), mueller hinton broth (S. aureus 29213; MRSA USA400, A. baumannii 19606, MRSA BAA-1762) or L-broth (P. aeruginosa, S. typhimurium, K. pneumonia and A. baumannii 17978). Each compound was prepared in DMSO with 2-fold serial dilutions to give a final concentration of, 0.031 to 64 μg/ml. 10 μl of the compound solution was then added, in duplicate, to either, 190 μl of cation adjusted mueller hinton broth (CAMHB) or 190 μl CAMHB containing ˜2.5×10^5 CFU/ml of bacteria (final compound concentration 0.031 to 64 μg/ml). Culture plates were incubated for 18-24 h at 37° C., and optical density at 600 nm (OD600) was measured using a Benchmark Plus™ microplate spectrophotometer (Bio-Rad™). The absorbance control values for the series containing CAMHB and inhibitor were subtracted as background from the corresponding infected wells. Minimal inhibitory concentration (MIC) was defined as the lowest concentration of test compound leading to complete inhibition of cell growth in relation to compound-free control wells as determined by optical density. Vancomycin, methicillin and ciprofloxicin were used as reference compounds. All assays were run in triplicate or duplicate. Experiments were replicated at least twice to verify reproducibility using the above conditions.

[2] = test system: A. baumannii (ATCC 17978); assay: In vitro susceptibility, broth microdilution (MIC); type: cell-based; conditions: Acinetobacter baumannii, ATCC17978; A. baumannii ATCC 17978 (values marked *); read-out: Antimicrobial activity (MIC) A. baumannii
Description: as §2, §3

[3] = S. aureus ATCC29213, 18-24 h, 37 C, read-out: Antimicrobial activity (MIC) S. aureus ATCC29213
[4] = ATCC19606, A. baumannii ATCC 19606 (values without asterisk), read-out: Antimicrobial activity (MIC) A. baumannii

SMILES: C[n+]1ccccc1CCNC(=O)c1c(-c2cc3cc(Cl)ccc3[nH]2)[nH]c2cc(Br)ccc12 [Compound 150]
IC50 (MRSA Pyk): < 100 nM
MIC (S. aureus (ATCC29213); [3]): 16 µg/mL
MIC (MRSA (ATCC BAA-1762); MRSA ATCC BAA-1762): 16 µg/mL
MIC (VRE#2 (2010A); VRE#2 (2010A)): 32 µg/mL
MIC [1, 4]: > 64 µg/mL

MIC (S. aureus (ATCC29213); [3]): > 64 µg/mL
MIC [2]: > 64 µg/mL
SMILES: COc1cc2sc(NC(=O)Nc3ccccc3)nc2cc1Br [Compound 153, 1-(5-bromo-6-methoxybenzo[d]thiazol-2-yl)-3-phenylurea]

MIC (S. aureus (ATCC29213); [3]): > 64 µg/mL
MIC [2]: > 64 µg/mL
SMILES: O=C(Nc1ccc([N+](=O)[O-])cc1)Nc1nc2cc(Br)ccc2s1 [Compound 154, 1-(5-bromobenzo[d]thiazol-2-yl)-3-(4-nitrophenyl)urea]

MIC [2]: > 64 µg/mL
SMILES: O=C(Nc1nc2cc(Br)ccc2s1)Nc1ccc(Cl)cc1C(F)(F)F [Compound 157, 1-(5-bromobenzo[d]thiazol-2-yl)-3-(4-chloro-2-(trifluoromethyl)phenyl)urea]

SMILES: CN(C)CC(=O)OCCCNC(=O)c1c(-c2cc3cc(Cl)ccc3[nH]2)[nH]c2cc(Br)ccc12 [Compound 184, 3-(6-Bromo-5′-chloro-1H, 1′H-[2,2′-biindole]-3-carboxamido)propyl Dimethylglycinate]
IC50 (MRSA Pyk): < 100 nM
MIC (S. aureus (ATCC29213); [3]): > 64 µg/mL
MIC (MRSA (ATCC BAA-1762); MRSA ATCC BAA-1762): 16 µg/mL (≈ 30.1 µM)
MIC (VRE#2 (2010A); VRE#2 (2010A)): > 64 µg/mL
MIC [1, 4]: > 64 µg/mL

SMILES: C[N+](C)(C)CCCNC(=O)COc1cc2[nH]c(-c3cc4ccc(Br)cc4[nH]3)cc2cc1Cl [Compound 191, 3-(2-((6′-Bromo-5-chloro-1H,1′H-[2,2′-biindol]-6-yl)oxy)acetamido)-N,N,N-trimethylpropan-1-aminium Formate]
IC50 (MRSA Pyk): < 100 nM
MIC (S. aureus (ATCC29213); ATCC29213, read-out: Antimicrobial activity (MIC) S. aureus ATCC29213): 16 µg/mL
MIC (MRSA (ATCC BAA-1762)): 16 µg/mL
MIC (VRE#2 (2010A)): 16 µg/mL
MIC ([1]; ATCC19606, read-out: Antimicrobial activity (MIC) A. baumannii): > 64 µg/mL

SMILES: OCCOc1cc2[nH]c(-c3cc4ccc(Br)cc4[nH]3)cc2cc1Cl [Compound 196, 2-((6′-Bromo-5-chloro-1H,1′H-[2,2′-biindol]-6-yl)oxy)ethan-1-ol]
IC50 (MRSA Pyk): < 100 nM
MIC (S. aureus (ATCC29213); [3]): 16 µg/mL (≈ 39.4 µM)
MIC (MRSA (ATCC BAA-1762); MRSA ATCC BAA-1762): 8 µg/mL (≈ 19.7 µM)
MIC (VRE#2 (2010A); VRE#2 (2010A)): > 64 µg/mL
MIC [1, 4]: > 64 µg/mL

SMILES: CN(C)CC(=O)OCCOc1cc2[nH]c(-c3cc4ccc(Br)cc4[nH]3)cc2cc1Cl [Compound 197, 2-((6′-Bromo-5-chloro-1H,1′H-[2,2′-biindol]-6-yl)oxy)ethyl Dimethylglycinate]
IC50 (MRSA Pyk): < 100 nM
MIC (S. aureus (ATCC29213); [3]): 8 µg/mL (≈ 16.3 µM)
MIC (MRSA (ATCC BAA-1762); MRSA ATCC BAA-1762): 8 µg/mL (≈ 16.3 µM)
MIC (VRE#2 (2010A); VRE#2 (2010A)): 8 µg/mL (≈ 16.3 µM)
MIC [1, 4]: > 64 µg/mL

SMILES: COc1cc2[nH]c(-c3[nH]c4cc(Br)ccc4c3C(=O)C(F)(F)F)cc2cc1Cl [Compound 200, 1-(6-Bromo-5′-chloro-6′-methoxy-1H, 1′H-[2,2′-biindol]-3-yl)-2,2,2-trifluoroethan-1-one]
IC50 (MRSA Pyk): < 100 nM
MIC (S. aureus (ATCC29213); [3]): 4 µg/mL (≈ 8.48 µM)
MIC (MRSA (ATCC BAA-1762); MRSA ATCC BAA-1762): 1 µg/mL (≈ 2.12 µM)
MIC (VRE#2 (2010A); VRE#2 (2010A)): 1 µg/mL (≈ 2.12 µM)
MIC [1, 4]: > 64 µg/mL

SMILES: C[N+](C)(CCO/N=C(/c1c(-c2cc3cc(Cl)ccc3[nH]2)[nH]c2cc(Br)ccc12)C(F)(F)F)CC(=O)[O-] [Compound 223, 2-((2-(((1-(6-Bromo-5′-chloro-1H,1′H-[2,2′-biindol]-3-yl)-2,2,2-trifluoroethylidene)amino)oxy)ethyl)dimethylammonio)acetate]
IC50 (MRSA Pyk): 100 to 1000 nM
MIC (S. aureus (ATCC29213); [3]): 16 µg/mL (≈ 27.3 µM)
MIC (MRSA (ATCC BAA-1762); MRSA ATCC BAA-1762): 8 µg/mL (≈ 13.7 µM)
MIC (VRE#2 (2010A); VRE#2 (2010A)): 8 µg/mL (≈ 13.7 µM)
MIC [1, 4]: > 64 µg/mL
